Assay [1] deals with BaF3_EGFR LR/CS cells. In words: Biological Activity Assay D: BaF3 cell proliferation assay, EGFR L858R/C797S mutant (BaF3 LR/CS). In kind it is cell-based. To be noted: Ba/F3 EGFR, read-out: BaF3 LR/CS IC50.
Assay [2] relates to Ba/F3_EGFR WT cells. In words: Biological Activity Assay D: BaF3 cell proliferation assay, EGFR wild-type (BaF3 WT). In kind it is cell-based. To be noted: Ba/F3 EGFR, read-out: BaF3 WT IC50.
In assay [3] the test system is BaF3_EGFR d19/CS cells. In words: Biological Activity Assay D: BaF3 cell proliferation assay, EGFR exon 19 deletion/C797S (BaF3 d19/CS). The class given is cell-based. To be noted: Ba/F3 EGFR, read-out: BaF3 d19/CS IC50.
Assay [4] addresses recombinant human EGFR exon 19 deletion/C797S double mutant protein (Homo sapiens (Human), UniProt P00533, C797S/DEL746-750). In words: Biological Activity Assay C: biochemical assay against EGFR exon 19 deletion/C797S protein (EGFR d19/CS). In outline:
(§1)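 IC50 values were fitted with a 4-parameter model to reaction slopes taken from 90 kinetic reads spaced 120 s apart. The Phosphosens sensor/ATP working solution was 40 uM/4 mM, and compound was dosed as 16-point dilutions at 2.5% final DMSO.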

The target in assay [5] is recombinant human EGFR L858R/C797S double mutant protein (Homo sapiens (Human), UniProt P00533, C797S/L858R). In words: Biological Activity Assay B: biochemical assay against EGFR L858R/C797S protein (EGFR LR/CS). The procedure, abridged: as §1
Sequence of recombinant human EGFR L858R/C797S double mutant protein (P00533 25-1210 C797S/L858R): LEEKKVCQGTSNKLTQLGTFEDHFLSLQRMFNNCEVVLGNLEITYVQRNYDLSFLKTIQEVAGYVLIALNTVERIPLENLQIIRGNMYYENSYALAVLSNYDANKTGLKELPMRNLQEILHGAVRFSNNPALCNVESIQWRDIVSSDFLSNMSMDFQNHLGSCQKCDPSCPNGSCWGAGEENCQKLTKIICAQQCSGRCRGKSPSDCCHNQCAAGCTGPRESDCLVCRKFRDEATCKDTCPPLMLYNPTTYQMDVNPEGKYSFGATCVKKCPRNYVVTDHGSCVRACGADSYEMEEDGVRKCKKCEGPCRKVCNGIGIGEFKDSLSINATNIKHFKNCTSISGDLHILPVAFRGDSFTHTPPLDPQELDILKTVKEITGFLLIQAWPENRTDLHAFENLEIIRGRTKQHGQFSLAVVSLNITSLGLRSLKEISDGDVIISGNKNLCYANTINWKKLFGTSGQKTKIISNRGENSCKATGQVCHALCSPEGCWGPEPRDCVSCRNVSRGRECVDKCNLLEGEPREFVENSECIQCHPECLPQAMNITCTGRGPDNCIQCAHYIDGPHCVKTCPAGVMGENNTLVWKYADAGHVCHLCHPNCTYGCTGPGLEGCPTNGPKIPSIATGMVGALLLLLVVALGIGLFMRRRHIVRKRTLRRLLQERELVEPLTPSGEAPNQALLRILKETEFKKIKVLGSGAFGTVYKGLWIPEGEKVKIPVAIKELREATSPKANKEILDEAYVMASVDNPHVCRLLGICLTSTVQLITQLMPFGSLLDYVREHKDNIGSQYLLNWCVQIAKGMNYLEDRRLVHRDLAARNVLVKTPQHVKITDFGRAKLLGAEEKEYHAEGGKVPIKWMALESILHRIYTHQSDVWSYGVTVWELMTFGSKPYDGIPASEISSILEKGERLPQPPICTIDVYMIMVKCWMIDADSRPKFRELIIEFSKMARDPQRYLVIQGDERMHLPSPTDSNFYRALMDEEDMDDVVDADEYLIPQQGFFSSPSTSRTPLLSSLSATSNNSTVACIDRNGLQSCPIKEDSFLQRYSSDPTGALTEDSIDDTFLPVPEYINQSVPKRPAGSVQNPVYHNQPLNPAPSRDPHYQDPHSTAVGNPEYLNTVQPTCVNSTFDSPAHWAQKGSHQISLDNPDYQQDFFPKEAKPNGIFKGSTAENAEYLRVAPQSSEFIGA
The mark [6] stands for this setting: BaF3_EGFR LR/CS cells, ~72 hours, CellTiter-Glo.
The mark [7] stands for this setting: Ba/F3_EGFR WT cells, ~72 hours, CellTiter-Glo.
Where [8] appears, read: BaF3_EGFR d19/CS cells, ~72 hours, CellTiter-Glo.

pIC50: −log10 of the molar value. Like-named read-outs stand apart in the source and are kept apart here.

Sequence of recombinant human EGFR exon 19 deletion/C797S double mutant protein (P00533 other isoform, or with tags, fused parts or gaps C797S/del 1-668/del 746-750 limits assumed): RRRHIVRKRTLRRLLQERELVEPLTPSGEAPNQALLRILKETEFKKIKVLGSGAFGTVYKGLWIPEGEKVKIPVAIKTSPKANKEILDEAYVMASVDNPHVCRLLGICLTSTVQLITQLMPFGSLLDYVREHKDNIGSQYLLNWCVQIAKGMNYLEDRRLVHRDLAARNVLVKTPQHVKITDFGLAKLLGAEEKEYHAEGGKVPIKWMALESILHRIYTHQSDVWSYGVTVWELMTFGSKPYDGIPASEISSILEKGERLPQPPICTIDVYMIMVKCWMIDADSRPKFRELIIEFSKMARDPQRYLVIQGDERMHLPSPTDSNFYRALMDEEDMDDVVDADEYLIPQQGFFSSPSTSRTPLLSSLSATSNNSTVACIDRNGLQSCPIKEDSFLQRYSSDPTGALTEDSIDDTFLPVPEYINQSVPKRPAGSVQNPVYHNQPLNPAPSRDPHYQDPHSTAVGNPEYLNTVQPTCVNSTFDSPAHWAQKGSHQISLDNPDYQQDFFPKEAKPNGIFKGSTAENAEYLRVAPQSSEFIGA

With `CC(C)(O)CCc1nc(-c2ccc(F)cc2)c(-c2ncnc3sc(-c4ccccc4)cc23)o1` [Example 66, 4-[4-(4-fluorophenyl)-5-(6-phenylthieno[2,3-d]pyrimidin-4-yl)-1,3-oxazol-2-yl]-2-methylbutan-2-ol], the pIC50 in assay [1] (setting [6]) was 5.57; in assay [2] (setting [7]) it was under 4.70; in assay [3] (setting [8]), 5.89; in assay [4], 8.09; in assay [5] it was 7.84.

Take `CC(C)(O)CCn1cc(-c2ncnc3sc(-c4ccccc4)cc23)c(-c2ccc(F)cc2)n1` [Example 67, 4-[3-(4-fluorophenyl)-4-(6-phenylthieno[2,3-d]pyrimidin-4-yl)-1H-pyrazol-1-yl]-2-methylbutan-2-ol]: the pIC50 in assay [1] (setting [6]) is 5.79; in assay [2] (setting [7]), 5.09; in assay [3] (setting [8]) it was 5.98; in assay [4], 7.73; in assay [5], 7.81.

Take `Fc1ccc(-c2nn(CC3CCO3)cc2-c2ncnc3oc(-c4ccccc4)cc23)cc1` (stereo not shown) [Example 69, 4-{3-(4-Fluorophenyl)-1-[(oxetan-2-yl)methyl]-1H-pyrazol-4-yl}-6-phenylfuro[2,3-d]pyrimidine]: the pIC50 in assay [1] (setting [6]) was 7.40; in assay [2] (setting [7]), 5.63; in assay [3] (setting [8]), 7.16; in assay [4], 9.42; in assay [5], 9.34.

For the compound `N#CCCn1cc(-c2ncnc3oc(-c4ccccc4)cc23)c(-c2ccc(F)cc2)n1` [Example 70, 3-[3-(4-Fluorophenyl)-4-(6-phenylfuro[2,3-d]pyrimidin-4-yl)-1H-pyrazol-1-yl]propanenitrile], the pIC50 is 8.10 in assay [1] (setting [6]); 6.17 in assay [2] (setting [7]); 7.94 in assay [3] (setting [8]); 9.46 in assay [4]; 9.48 in assay [5].

With `FCCCCn1cc(-c2ncnc3oc(-c4ccccc4)cc23)c(-c2ccc(F)cc2)n1` [Example 71, 4-[1-(4-fluorobutyl)-3-(4-fluorophenyl)-1H-pyrazol-4-yl]-6-phenylfuro[2,3-d]pyrimidine], the pIC50 was 7.08 in assay [1] (setting [6]); 5.58 in assay [2] (setting [7]); 6.82 in assay [3] (setting [8]); 8.79 in assay [4]; 8.90 in assay [5].

Turning to `OCCCc1nc(-c2ccc(F)cc2)c(-c2ncnc3sc(-c4ccccc4)cc23)o1` [Example 74, 3-[4-(4-fluorophenyl)-5-(6-phenylthieno[2,3-d]pyrimidin-4-yl)-1,3-oxazol-2-yl]propan-1-ol], the pIC50 in assay [1] (setting [6]) is 6.57; in assay [2] (setting [7]) it was under 4.70; in assay [3] (setting [8]) it was 6.04; in assay [4], 8.54; in assay [5], 8.03.

As to `COC1(Cn2cc(-c3ncnc4oc(-c5ccccc5)cc34)c(-c3ccc(F)cc3)n2)COC1` [Example 75, 4-{3-(4-fluorophenyl)-1-[(3-methoxyoxetan-3-yl)methyl]-1H-pyrazol-4-yl}-6-phenylfuro[2,3-d]pyrimidine], the pIC50 in assay [1] (setting [6]) is 6.88; in assay [2] (setting [7]), 5.23; in assay [3] (setting [8]), 6.82; in assay [4], 8.83; in assay [5], 9.00.

On to `Fc1ccc(-c2nn(C3CCOCC3)cc2-c2ncnc3oc(-c4ccccc4)cc23)cc1` [Example 76, 4-[3-(4-Fluorophenyl)-1-(oxan-4-yl)-1H-pyrazol-4-yl]-6-phenylfuro[2,3-d]pyrimidine], for which the pIC50 in assay [1] (setting [6]) was 7.34; in assay [2] (setting [7]) it was 5.69; in assay [3] (setting [8]), 7.51; in assay [4] it was 9.15; in assay [5] it was 9.03.

For the compound `CC(C)(C(N)=O)n1cc(-c2ncnc3oc(-c4ccccc4)cc23)c(-c2ccc(F)cc2)n1` [Example 77, 2-[3-(4-Fluorophenyl)-4-(6-phenylfuro[2,3-d]pyrimidin-4-yl)-1H-pyrazol-1-yl]-2-methylpropanamide], the pIC50 is 6.86 in assay [1] (setting [6]); 5.29 in assay [2] (setting [7]); 7.14 in assay [3] (setting [8]); 8.79 in assay [4]; 8.87 in assay [5].

In the case of `OCC(F)(F)Cn1cc(-c2ncnc3oc(-c4ccccc4)cc23)c(-c2ccc(F)cc2)n1` [Example 78, 2,2-Difluoro-3-[3-(4-fluorophenyl)-4-(6-phenylfuro[2,3-d]pyrimidin-4-yl)-1H-pyrazol-1-yl]propan-1-ol], the pIC50 in assay [1] (setting [6]) is 7.63; in assay [2] (setting [7]) it was 5.56; in assay [3] (setting [8]) it was 7.74; in assay [4], 9.43; in assay [5], 9.32.

For `CS(=O)(=O)Cn1cc(-c2ncnc3oc(-c4ccccc4)cc23)c(-c2ccc(F)cc2)n1` [Example 79, 4-{3-(4-fluorophenyl)-1-[(methanesulfonyl)methyl]-1H-pyrazol-4-yl}-6-phenylfuro[2,3-d]pyrimidine], the pIC50 in assay [1] (setting [6]) was 6.94; in assay [2] (setting [7]), 4.99; in assay [3] (setting [8]), 6.95; in assay [4] it was 8.70; in assay [5], 8.58.

As for `Fc1ccc(-c2nn(C3COC3)nc2-c2ncnc3oc(-c4ccccc4)cc23)cc1` [Example 81, 4-[5-(4-fluorophenyl)-2-(oxetan-3-yl)-2H-1,2,3-triazol-4-yl]-6-phenylfuro[2,3-d]pyrimidine], the pIC50 is 6.62 in assay [1] (setting [6]); 4.87 in assay [2] (setting [7]); 6.48 in assay [3] (setting [8]); 8.95 in assay [4]; 8.59 in assay [5].

`CC(C)(O)CCn1nc(-c2ccc(F)cc2)c(-c2ncnc3oc(-c4ccccc4)cc23)n1` [Example 82, 4-[4-(4-fluorophenyl)-5-(6-phenylfuro[2,3-d]pyrimidin-4-yl)-2H-1,2,3-triazol-2-yl]-2-methylbutan-2-ol]: the pIC50 in assay [1] (setting [6]) is 6.41; in assay [2] (setting [7]), under 4.70; in assay [3] (setting [8]), 6.22; in assay [4], 8.54; in assay [5], 8.36.

For `O=S1(=O)CCCC(n2cc(-c3ncnc4oc(-c5ccccc5)cc34)c(-c3ccc(F)cc3)n2)C1` (stereo not shown) [Example 84, 3-[3-(4-fluorophenyl)-4-(6-phenylfuro[2,3-d]pyrimidin-4-yl)-1H-pyrazol-1-yl]-1λ6-thiane-1,1-dione], the pIC50 in assay [1] (setting [6]) is 6.25; in assay [2] (setting [7]), under 4.70; in assay [3] (setting [8]) it was 6.11; in assay [4], 7.97; in assay [5] it was 8.21.

Turning to `CC(=O)N1CC(n2cc(-c3ncnc4oc(-c5ccccc5)cc34)c(-c3ccc(F)cc3)n2)C1` [Example 86, 1-{3-[3-(4-fluorophenyl)-4-(6-phenylfuro[2,3-d]pyrimidin-4-yl)-1H-pyrazol-1-yl]azetidin-1-yl}ethan-1-one], the pIC50 in assay [1] (setting [6]) was 6.41; in assay [2] (setting [7]), 5.13; in assay [3] (setting [8]), 6.37; in assay [4], 8.18; in assay [5], 8.20.

With `CS(=O)(=O)CCn1nc(-c2ccc(F)cc2)c(-c2ncnc3oc(-c4ccccc4)cc23)n1` [Example 87, 4-{5-(4-fluorophenyl)-2-[2-(methanesulfonyl)ethyl]-2H-1,2,3-triazol-4-yl}-6-phenylfuro[2,3-d]pyrimidine], the pIC50 is 6.85 in assay [1] (setting [6]); 5.55 in assay [2] (setting [7]); 6.71 in assay [3] (setting [8]); 8.87 in assay [4]; 8.81 in assay [5].

Regarding `CC(C)(O)Cn1nc(-c2ccc(F)cc2)c(-c2ncnc3oc(-c4ccccc4)cc23)n1` [Example 88, 1-[4-(4-fluorophenyl)-5-(6-phenylfuro[2,3-d]pyrimidin-4-yl)-2H-1,2,3-triazol-2-yl]-2-methylpropan-2-ol], the pIC50 in assay [1] (setting [6]) is 6.52; in assay [2] (setting [7]), 5.43; in assay [3] (setting [8]) it was 6.62; in assay [4] it was 9.19; in assay [5], 8.91.

With `CC(=O)N1CCC(n2cc(-c3ncnc4oc(-c5ccccc5)cc34)c(-c3ccc(F)cc3)n2)C1` (stereo not shown) [Example 92, 1-{3-[3-(4-fluorophenyl)-4-(6-phenylfuro[2,3-d]pyrimidin-4-yl)-1H-pyrazol-1-yl]pyrrolidin-1-yl}ethan-1-one], the pIC50 in assay [1] (setting [6]) was 6.64; in assay [2] (setting [7]), 5.21; in assay [3] (setting [8]) it was 6.59; in assay [4], 9.08; in assay [5] it was 9.02.

`COC(C)(C)Cn1cc(-c2ncnc3oc(-c4ccccc4)cc23)c(-c2ccc(F)cc2)n1` [Example 93, 4-[3-(4-fluorophenyl)-1-(2-methoxy-2-methylpropyl)-1H-pyrazol-4-yl]-6-phenylfuro[2,3-d]pyrimidine]: the pIC50 in assay [1] (setting [6]) was 6.74; in assay [2] (setting [7]), 5.37; in assay [3] (setting [8]), 6.35; in assay [4], 9.14; in assay [5] it was 9.04.

With `OCCn1cc(-c2ncnc3oc(-c4ccccc4)cc23)c(-c2ccc(F)cc2)n1` [Example 94, 2-[3-(4-Fluorophenyl)-4-(6-phenylfuro[2,3-d]pyrimidin-4-yl)-1H-pyrazol-1-yl]ethan-1-ol], the pIC50 is 7.65 in assay [1] (72 h); 5.95 in assay [2] (72 h); 7.56 in assay [3] (72 h); 9.96 in assay [4]; 9.77 in assay [5].

Source of the values: patent US20250034159A1, “INHIBITORS OF EPIDERMAL GROWTH FACTOR RECEPTOR” (ORIC Pharmaceuticals, Inc., priority 2021, published 2025).
